Measured values published in ChEMBL document CHEMBL4476867, “Hydroxy formamide derivatives and their use” (2016).

Tests used:
[1] = target: T1, Bone morphogenetic protein 1 (Homo sapiens, UniProt P13497); assay: Inhibition of C-terminal FLAG-6x-His epitope tagged and N-terminal human RAGE signal sequence tagged human BMP1 (23 to 721 amino acids) expressed in CHO-E1 cells pre-incubated for 10 mins before promyostatin peptide substrate addition and measured after 60 mins using 0.5 nM BMP1 by FRET based assay; type: cell-based
T1 sequence (P13497 whole entry): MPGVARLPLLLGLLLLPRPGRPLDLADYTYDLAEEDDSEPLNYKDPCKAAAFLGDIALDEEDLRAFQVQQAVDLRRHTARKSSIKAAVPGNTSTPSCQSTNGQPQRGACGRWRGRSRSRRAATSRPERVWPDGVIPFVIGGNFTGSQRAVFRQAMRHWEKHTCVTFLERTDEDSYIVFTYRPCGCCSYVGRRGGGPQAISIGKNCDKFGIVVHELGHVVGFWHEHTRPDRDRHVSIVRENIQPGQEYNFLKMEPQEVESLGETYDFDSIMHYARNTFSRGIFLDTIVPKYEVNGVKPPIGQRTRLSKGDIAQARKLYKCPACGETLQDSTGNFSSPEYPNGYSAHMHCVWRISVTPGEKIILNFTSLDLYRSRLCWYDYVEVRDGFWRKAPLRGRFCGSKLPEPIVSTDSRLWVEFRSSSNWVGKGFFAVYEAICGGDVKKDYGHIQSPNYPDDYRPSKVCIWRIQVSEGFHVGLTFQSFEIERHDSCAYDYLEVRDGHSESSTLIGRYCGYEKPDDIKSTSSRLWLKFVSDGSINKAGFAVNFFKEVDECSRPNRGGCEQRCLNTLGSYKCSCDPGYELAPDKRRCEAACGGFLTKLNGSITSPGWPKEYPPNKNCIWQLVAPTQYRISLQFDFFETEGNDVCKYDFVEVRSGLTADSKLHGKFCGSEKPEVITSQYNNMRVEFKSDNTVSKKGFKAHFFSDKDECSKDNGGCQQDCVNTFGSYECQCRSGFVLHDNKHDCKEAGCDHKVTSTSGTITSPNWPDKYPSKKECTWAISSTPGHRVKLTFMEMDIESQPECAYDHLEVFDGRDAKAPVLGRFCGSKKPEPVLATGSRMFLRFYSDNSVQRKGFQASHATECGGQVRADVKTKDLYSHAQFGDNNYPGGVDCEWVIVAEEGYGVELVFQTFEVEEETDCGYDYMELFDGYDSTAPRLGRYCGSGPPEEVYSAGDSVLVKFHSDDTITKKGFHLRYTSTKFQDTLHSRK

[2] = target: T1, Bone morphogenetic protein 1; assay: Inhibition of C-terminal FLAG-6x-His epitope tagged and N-terminal human RAGE signal sequence tagged human BMP1 (23 to 721 amino acids) expressed in CHO-E1 cells pre-incubated for 10 mins before promyostatin peptide substrate addition and measured after 30 mins using 50 nM BMP1 by FRET based assay; type: cell-based
Tolloid-like protein 1 = Tolloid-like protein 1 (Homo sapiens, UniProt O43897, I156V/N221S/V284A); assay: Inhibition of recombinant human TLL1 I156V/N221S/V284A mutant expressed in CHOE1A cells pre-incubated for 10 mins before promyostatin peptide substrate addition and measured after 60 mins by FRET based assay; type: cell-based
Tolloid-like protein 1, sequence (O43897 148-1013 I156V/N221S/V284A limits assumed): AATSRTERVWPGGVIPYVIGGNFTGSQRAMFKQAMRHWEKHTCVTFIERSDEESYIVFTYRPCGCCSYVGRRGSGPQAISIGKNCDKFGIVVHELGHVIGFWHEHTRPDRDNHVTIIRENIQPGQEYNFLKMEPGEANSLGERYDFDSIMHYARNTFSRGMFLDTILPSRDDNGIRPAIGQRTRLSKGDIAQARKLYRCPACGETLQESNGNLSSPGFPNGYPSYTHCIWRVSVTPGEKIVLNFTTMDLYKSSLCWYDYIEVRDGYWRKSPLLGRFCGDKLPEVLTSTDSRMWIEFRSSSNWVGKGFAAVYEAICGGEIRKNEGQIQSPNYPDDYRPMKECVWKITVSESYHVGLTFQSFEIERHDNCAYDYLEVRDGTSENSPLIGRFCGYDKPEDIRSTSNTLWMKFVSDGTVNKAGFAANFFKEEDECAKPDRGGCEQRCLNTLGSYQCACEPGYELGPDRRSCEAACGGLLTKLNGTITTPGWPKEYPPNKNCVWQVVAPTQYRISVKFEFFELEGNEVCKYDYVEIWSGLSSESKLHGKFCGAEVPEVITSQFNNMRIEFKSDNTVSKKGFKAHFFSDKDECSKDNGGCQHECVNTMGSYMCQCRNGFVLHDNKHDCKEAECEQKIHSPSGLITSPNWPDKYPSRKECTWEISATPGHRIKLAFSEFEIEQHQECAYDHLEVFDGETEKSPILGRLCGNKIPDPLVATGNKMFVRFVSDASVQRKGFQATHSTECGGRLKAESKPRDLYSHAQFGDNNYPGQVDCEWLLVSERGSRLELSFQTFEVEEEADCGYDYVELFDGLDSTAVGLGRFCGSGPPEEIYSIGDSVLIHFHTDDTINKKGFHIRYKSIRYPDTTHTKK

Tolloid-like protein 2 = target: T2, Tolloid-like protein 2 (Homo sapiens, UniProt Q9Y6L7); assay: Inhibition of C-terminal Avi-6x-His epitope tagged and N-terminal human RAGE signal sequence tagged recombinant human TLL2 (26 to 1015 amino acids) expressed in CHOE1A cells incubated for 60 mins with promyostatin peptide substrate by FRET based assay; type: cell-based
T2 sequence (Q9Y6L7 whole entry): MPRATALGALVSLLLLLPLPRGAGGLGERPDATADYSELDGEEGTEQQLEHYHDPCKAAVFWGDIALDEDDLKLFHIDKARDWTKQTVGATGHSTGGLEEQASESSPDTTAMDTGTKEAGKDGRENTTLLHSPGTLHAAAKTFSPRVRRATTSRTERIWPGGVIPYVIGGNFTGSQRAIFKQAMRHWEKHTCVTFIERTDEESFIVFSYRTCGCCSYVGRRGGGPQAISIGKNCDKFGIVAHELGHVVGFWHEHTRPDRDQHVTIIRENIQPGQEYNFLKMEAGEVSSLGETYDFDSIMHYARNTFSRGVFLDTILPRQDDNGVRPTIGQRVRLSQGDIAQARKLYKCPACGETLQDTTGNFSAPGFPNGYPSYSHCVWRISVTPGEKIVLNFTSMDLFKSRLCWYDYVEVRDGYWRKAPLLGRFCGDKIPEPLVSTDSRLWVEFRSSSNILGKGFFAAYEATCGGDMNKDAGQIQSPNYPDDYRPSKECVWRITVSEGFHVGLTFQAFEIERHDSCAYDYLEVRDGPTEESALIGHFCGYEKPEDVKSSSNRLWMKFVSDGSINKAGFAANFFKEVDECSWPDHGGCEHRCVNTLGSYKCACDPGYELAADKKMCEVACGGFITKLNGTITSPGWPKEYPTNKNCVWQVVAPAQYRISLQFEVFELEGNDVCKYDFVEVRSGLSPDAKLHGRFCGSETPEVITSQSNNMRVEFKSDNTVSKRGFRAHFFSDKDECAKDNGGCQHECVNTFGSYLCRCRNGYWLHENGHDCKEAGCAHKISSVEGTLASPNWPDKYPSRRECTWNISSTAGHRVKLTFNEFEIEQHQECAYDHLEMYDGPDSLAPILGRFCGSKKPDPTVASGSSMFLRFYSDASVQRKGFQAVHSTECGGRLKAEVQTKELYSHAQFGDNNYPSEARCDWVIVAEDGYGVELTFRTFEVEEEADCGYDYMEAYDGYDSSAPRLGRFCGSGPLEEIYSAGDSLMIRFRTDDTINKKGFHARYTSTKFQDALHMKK

[3] = Reduction in PICP levels in human cardiac fibroblasts incubated for 24 to 48 hrs by ELISA; type: functional
Outline: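 Human cardiac fibroblasts at passage 6 or below were plated in 96-well plates at 10,000 to 15,000 cells per well. On the following day, cells were treated for 24 to 48 hr at 37° C in ficoll crowding EMEM containing 100 μM ascorbic acid, with DMSO kept under 0.3%. A Quidel ELISA measured procollagen I C-terminal propeptide released into the medium, and IC50 values were derived in GraphPad Prism by fitting levels, expressed relative to untreated controls, to a log(inhibitor)-response equation.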

Row | Compound | IC50 [1] [nM] | IC50 [2] [nM] | IC50 (Tolloid-like protein 1) [nM] | IC50 (Tolloid-like protein 2) [nM] | IC50 [3] [nM]
1 | CCCCC[C@H](CN(O)C=O)C(=O)NCNC(=O)c1ccc(-c2cc(OCC)cc(C(=O)OC)c2)o1 | < 126 | < 200 | < 398 | < 794 | < 3980
2 | CCCCC[C@H](CN(O)C=O)C(=O)NCNC(=O)c1ccc(-c2cccc(OC(F)(F)F)c2)o1 | < 126 | < 200 | < 398 | < 794 | < 3980
3 | CCCCC[C@H](CN(O)C=O)C(=O)NCNC(=O)c1ccc(-c2cccc(C(=O)OC)c2)o1 | < 126 | < 200 | < 398 | < 794 | < 3980
4 | CCCCC[C@@H](C(=O)NCNC(=O)c1ccc(-c2cc(OCC)cc(C(=O)N[C@@H](CCC(=O)O)C(=O)OC(C)(C)C)c2)o1)[C@@H](CC)N(O)C=O | < 126 | < 200 | < 398 | < 794 | < 3980
5 | CCCCC[C@H](CN(O)C=O)C(=O)NCNC(=O)c1ccc(-c2cc(OCC)cc(C(=O)NCCN)c2)o1 | < 126 | < 200 | – | – | < 3980
6 | CCCCC[C@H](CN(O)C=O)C(=O)NCNC(=O)c1ccc(-c2cccc(S(=O)(=O)NC(=O)CC)c2)o1 | < 126 | < 200 | < 398 | < 794 | < 3980
7 | CCCCC[C@@H](C(=O)NCNC(=O)c1ccc(-c2cc(OCC)cc(C(=O)N[C@@H](CCC(=O)OC)C(=O)OC)c2)o1)[C@@H](CC)N(O)C=O | < 126 | < 200 | < 398 | < 794 | < 3980
8 | CCCCC[C@H](CN(O)C=O)C(=O)NCNC(=O)c1ccc(-c2cc(OCC)cc(C(=O)O)c2)o1 | < 126 | < 200 | < 398 | < 794 | < 3980
9 | CCCCC[C@H](CN(O)C=O)C(=O)NCNC(=O)c1ccc(-c2cccc(S(=O)(=O)NC)c2)o1 | < 126 | < 200 | < 398 | < 794 | < 3980
10 | CCCCC[C@H](CN(O)C=O)C(=O)NCNC(=O)c1ccc(-c2cccc(S(N)(=O)=O)c2)o1 | < 126 | < 200 | < 398 | < 794 | < 3980
11 | CCCCC[C@H](CN(O)C=O)C(=O)NCNC(=O)c1ccc(-c2cc(OC)cc(C(=O)O)c2)o1 | < 126 | < 200 | < 398 | < 794 | < 3980
12 | CCCCC[C@H](CN(O)C=O)C(=O)NCNC(=O)c1ccc(-c2cc(OC)cc(C(=O)NCCN)c2)o1 | < 126 | < 200 | < 398 | < 794 | < 3980
13 | CCCCC[C@@H](C(=O)NCNC(=O)c1ccc(-c2cc(OCC)cc(C(=O)NCCN)c2)o1)[C@@H](CC)N(O)C=O | < 126 | < 200 | < 398 | < 794 | < 3980
14 | CCOc1cc(-c2ccc(C(=O)NCNC(=O)[C@H](CCc3ccc4ccccc4c3)[C@@H](CC)N(O)C=O)o2)cc(P(=O)(O)O)c1 | < 126 | < 200 | – | – | < 3980
